Laboratory results: US9216169B2, “Pharmaceutical composition comprising candesartan or ester thereof and chlortalidone, and use thereof” (TIANJIN INSTITUTE OF PHARMACEUTICAL RESEARCH, priority 2011, dated 2015)

Assays:
[1] = clinical studies; cited from earlier work
[2] = system: patients; conditions: study in 1714 patients; cited from earlier work
[3] = system: Spontaneously hypertensive rats (SHR); experiment: SBP of SHR by Tail-Cuff method, first administration and continuous administration for 14 days (Examples 8-12); assay type: in vivo, rat; conditions: for AUC0-24h: after first administration
Protocol: Spontaneously hypertensive rats (SHR), male, are provided by Beijing Vital River Laboratory Animal Technology Co., Ltd. The number of animal production license is SCXK (Jing) 2007-0001. Animals are raised in an observation room at the room temperature of 25±2° C. controlled by central air-conditioning system and with artificial lighting of 12 h/day. The animals are raised in separate cages sized 43×27×18 cm with 4 animals for each cage. The rats are free access to water and are fed with block fodder everyday, and the water supply is refreshed once a day. The temperature of the room for measuring the blood pressure is 26±2° C.
The blood pressure is measured by Tail-Cuff method and the hear rate is measured according to the pulse frequency. Animals are pre-trained for the blood pressure measurement for more than 2 weeks so as to adapt to the environment of measurement. Animals are placed in a isothermal bag at 37° C. to be prewarmed for 5 to 10 min for formal measurement. Blood pressures of the rats are measured from tail arteries for 2 to 3 times at rest states, and an average value is taken as each blood pressure measured value. All data are collected and preserved by a computer.
SHRs with systolic blood pressures (SBPs)>190 mmHg are selected for experiment.
Rats are randomly divided into 20 groups according to their blood pressures with each group having 8-10 rats. Animals are fasted overnight and measured for the blood pressure of pre-administration at the day of experiment, and then administered drugs in accordance with the following method:
The single-drug group is intragastrically administered candesartan (Can) or chlorthalidone (Chl), with the dosage of Can of 0.1, 0.2, 0.4 mg/kg respectively and the dosage of Chl of 0.3125, 0.625, 1.25 mg/kg respectively;
According to the clinical single-drug specification, the ratios of Can+Chl are set as follows:
For the ratio of Can:Chl=1:6.25, one dose of 0.1+0.625 mg/kg is set;
For the ratio of Can:Chl=1:3.125, two doses of 0.2+0.625 and 0.4+1.25 mg/kg are set;
For the ratio of Can:Chl=1.28:1, one dose of 0.4+0.3125 mg/kg is set;
For the ratio of Can:Chl=2.56:1, one dose of 0.4+0.15625 mg/kg is set;
The administration volumes are all 5 mL/kg. Rats are continuously administered for 14 days. SBPs are measured 2, 4, 8, 12 and 24 hours after the first administration. On the day of 3, 7, 14 days after administration, the blood pressures are measured before administration and 5 hours after administration. Areas under blood pressure reduction-time curve from 0 to 24 h and from 0 to 14 days (AUC0-24h, AUC0-14d) are calculated.
The calculated results are expressed as mean±standard error ( x±SE); statistical treatment is performed using unpaired t test between groups to compare the significance of the average difference; the interaction between drugs are determined by using factorial analysis of variance, and P<0.05 means the difference has statistical significance.

[4] = system: Spontaneously hypertensive rats (SHR); experiment: as above; assay type: in vivo, rat
[5] = cited from earlier work
[6] = 12.5-25 mg/d of chlorthalidone, clinical studies

In the case of `NS(=O)(=O)c1cc(C2(O)NC(=O)c3ccccc32)ccc1Cl` (stereo not shown) [Chl, Chlorthalidone], the “valid control rate of blood pressure” value [1] is given as 68.2%, the “reduction of SBP compared with the basic value” [2] is given as 12.7-15.9 mmHg and the AUC0-14d ([3]; Chl 0.3125 mg/kg i.g. for 14 days) is given as −125.9 mmHg · d. The AUC0-24h ([3]; Chl 0.3125 mg/kg i.g.) was −133.1 mmHg · h, the AUC0-14d ([3]; Chl 0.625 mg/kg i.g. for 14 days) was −134.5 mmHg · d and the AUC0-24h ([3]; Chl 0.625 mg/kg i.g.) was −190.4 mmHg · h. The AUC0-14d ([3]; Chl 1.25 mg/kg i.g. for 14 days) was −174.2 mmHg · d, the AUC0-24h ([3]; Chl 1.25 mg/kg i.g.) was −208.1 mmHg · h and the AUC0-14d ([4]; Chl 0.15625 mg/kg i.g. for 14 days) was −36.0 mmHg · d. For the same molecule, the AUC0-24h ([4]; Chl 0.15625 mg/kg i.g., after first administration) was −47.0 mmHg · h, the “lowering of 24-hour blood pressure” value [5, 6] was 12.4 mmHg and the “lowering of night-time blood pressure” value [5, 6] was 13.5 mmHg. For the same molecule, the “antihypertensive efficacy relative to that of hydrochlorothiazide” value ([5]; according to Khoska) was 1.5-2 times.
